# According to publication PMC11124413, “Synthesis, Antibacterial Effects, and Toxicity of Licochalcone C” (Pharmaceuticals, 2024):
# Values joined by “and” are separate entries in the source; they are usually repeats but may differ in a detail not shown here. Identical values can stand only once. Like-named read-outs stand apart in the source and are kept apart here. Positions of bridges follow the written chain, without caps; N, C: chain ends. Non-standard residues stand in square brackets, D forms with d. No end group written: not given here. Abu = CC[C@H](N)C(=O)O; Dhb = C/C=C(\N)C(=O)O; Dha = C=C(N)C(=O)O
# How the values were obtained:
# MSSA (ATCC 6538) = test: MIC, broth microdilution with resazurin; type: cell-based; details: Staphylococcus aureus (MSSA), mean of triplicates
# MRSA (ATCC BAA44) = test: MIC, broth microdilution with resazurin; type: cell-based; details: Staphylococcus aureus (MRSA), mean of triplicates
# [1] = tested on: S. epidermidis (ATCC 14990); test: MIC, broth microdilution with resazurin; type: cell-based; details: ATCC14990; Staphylococcus epidermidis; mean of triplicates
# E. faecalis (ATCC 1299) = test: MIC, broth microdilution with resazurin; type: cell-based; details: ATCC1299; Enterococcus faecalis; mean of triplicates
# [2] = tested on: S. pneumoniae (ATCC 6305); test: MIC, broth microdilution with resazurin; type: cell-based; details: ATCC6305; Streptococcus pneumoniae; mean of triplicates
# [3] = tested on: S. sanguinis (ATCC 10556); test: MIC, broth microdilution with resazurin; type: cell-based; details: ATCC10556; Streptococcus sanguinis; mean of triplicates
# S. sobrinus (ATCC 33478) = test: MIC, broth microdilution with resazurin; type: cell-based; details: ATCC33478; Streptococcus sobrinus; mean of triplicates
# S. mutans (ATCC 25175) = test: MIC, broth microdilution with resazurin; type: cell-based; details: ATCC25175; Streptococcus mutans; mean of triplicates
# [4] = tested on: M. tuberculosis (ATCC 27294); test: Antimycobacterial MIC, resazurin microtiter assay; type: cell-based; details: ATCC27294; Mycobacterium tuberculosis; mean of triplicates
# M. avium (ATCC 25291) = test: Antimycobacterial MIC, resazurin microtiter assay; type: cell-based; details: ATCC25291; Mycobacterium avium; mean of triplicates
# M. kansasii (ATCC 12478) = test: Antimycobacterial MIC, resazurin microtiter assay; type: cell-based; details: ATCC12478; Mycobacterium kansasii; mean of triplicates
# H. pylori (ATCC 43526) = test: MIC, broth microdilution with resazurin; type: cell-based; details: Helicobacter pylori, mean of triplicates
# [5] = tested on: P. aeruginosa (ATCC 27853); test: MIC, broth microdilution with resazurin; type: cell-based; details: Pseudomonas aeruginosa, mean of triplicates
# [6] = tested on: K. pneumoniae (ATCC 23883); test: MIC, broth microdilution with resazurin; type: cell-based; details: Klebsiella pneumoniae, mean of triplicates
# [7] = tested on: Escherichia coli (ATCC 25922); test: MIC, broth microdilution with resazurin; type: cell-based
# Gram-positive bacteria = test: MIC, panel of Gram-positive bacteria; type: cell-based; details: all Gram-positive bacteria tested
# MRSA planktonic cells = test: Checkerboard assay; type: cell-based, S. aureus; details: for MIC: Staphylococcus aureus, read-out: MIC Alone; for MIC Combined: in combination LCC + VAN
# Experimental: (§1) The combinations of LCC with tetracycline and vancomycin were evaluated against MSSA and MRSA, respectively, using a microdilution broth checkerboard assay, according to White and collaborators, adapted with the standard procedure established by the CLSI [51, 54]. The fractional inhibitory concentration (FIC) of the combination between LCC and tetracycline or vancomycin was determined using Mueller–Hinton broth culture medium into 96-well plates, with a final inoculum suspension of 5.0 × 10^5 CFU/mL, incubated at 37 °C for 24 h. After incubation, an aqueous resazurin solution (0.02%) was added to the wells and the FIC values (ratio between the MIC of the drug in combination and the MIC of the drug alone) were determined for each drug (Equations (1) and (2)). The fractional inhibitory concentration index (FICI) was calculated using Equation (3). (1) FICLCC=MIC of drug A in combination/MIC of drug A alone (2) FICD=MIC of drug B in combination/MIC of drug B alone FIC Index (FICI) = FICLCC + FICD(3)
# (§2) The combination was classified as synergistic (FICI ≤ 0.5), indifferent (0.5 < FICI < 4), and antagonistic (FICI ≥ 4). The assays were performed in triplicate in independent experiments.
# MSSA planktonic cells = test: Checkerboard assay; type: cell-based, S. aureus; details: for MIC: Staphylococcus aureus, drug alone; for MIC / MIC Combined: checkerboard; for MIC Combined: in combination LCC + TC
# Experimental: as §1, §2
# MSSA biofilm = test: Antibiofilm assay (biofilm formation); type: cell-based, S. aureus; details: for MBIC50 (minimum biofilm inhibitory concentration): MSSA biofilm formation
# MRSA biofilm = test: Antibiofilm assay (biofilm formation); type: cell-based, S. aureus; details: for MBIC50 (minimum biofilm inhibitory concentration): MRSA biofilm formation
# [8] = tested on: Galleria mellonella larvae; test: Systemic toxicity in Galleria mellonella larvae; type: in vivo
# Experimental: The systemic toxicity assay was performed to evaluate the acute toxic effects of LCC, following the procedures described by Megaw [63]. For the experiment, 10 healthy larvae from G. mellonella were randomly selected for each concentration test, with a weight range between 0.2 g and 0.3 g and without melanization aspects. The larvae were chilled on ice for 20 min and had their prolegs cleaned with 70% ethanol. […] Five microliters of the solution were injected into the hemocoel of each larva through the last left proleg using a 25 µL Hamilton syringe. After the administration, the larvae were incubated at 37 °C and their survival was monitored in selected intervals over 72 h. The larvae unable to move when touched and showing elevated levels of melanization were counted as dead. Experiments were performed in triplicate.
# NADH-oxidase = biological target: NADH-oxidase; parameters: method as in PMID 9621457; details: cited from earlier work
# [9] = biological target: NADH-cytochrome c reductase; parameters: method as in PMID 9621457; details: cited from earlier work
# NADH-CoQ reductase = biological target: NADH-CoQ reductase; parameters: method as in PMID 9621457; details: cited from earlier work
# NADH-FMN oxidoreductase = biological target: NADH-FMN oxidoreductase; parameters: method as in PMID 9621457; details: cited from earlier work
# [10] = tested on: E. coli respiratory chain; parameters: method as in PMID 9621457; details: cited from earlier work
# T24 (bladder) = tested on: T24 (bladder); parameters: method as in PMID 26397392; details: at 45 µg/mL; cited from earlier work
# MCF7 (breast) = tested on: MCF7 (breast); parameters: method as in PMID 26397392; details: at 45 µg/mL; cited from earlier work
# A549 (lung) = tested on: A549 (lung); parameters: method as in PMID 26397392; details: at 45 µg/mL; cited from earlier work
# HCT116 (colorectal) = tested on: HCT116 (colorectal); parameters: method as in PMID 38148556; details: read-out: IC50 (proliferation); cited from earlier work
# HepG2 (liver) = tested on: HepG2 (liver); parameters: method as in PMID 32578448; details: read-out: IC50 (proliferation); cited from earlier work
# HN22 (oral) = tested on: HN22 (oral); parameters: method as in PMID 30129052; details: read-out: IC50 (proliferation); cited from earlier work
# HSC4 (oral) = tested on: HSC4 (oral); parameters: method as in PMID 30129052; details: read-out: IC50 (proliferation); cited from earlier work
# KYSE 30 (esophageal) = tested on: KYSE 30 (esophageal); parameters: method as in PMID 32009586; details: read-out: IC50 (proliferation); cited from earlier work
# KYSE 70 (esophageal) = tested on: KYSE 70 (esophageal); parameters: method as in PMID 32009586; details: read-out: IC50 (proliferation); cited from earlier work
# KYSE 410 (esophageal) = tested on: KYSE 410 (esophageal); parameters: method as in PMID 32009586; details: read-out: IC50 (proliferation); cited from earlier work
# KYSE 450 (esophageal) = tested on: KYSE 450 (esophageal); parameters: method as in PMID 32009586; details: read-out: IC50 (proliferation); cited from earlier work
# KYSE 510 (esophageal) = tested on: KYSE 510 (esophageal); parameters: method as in PMID 32009586; details: read-out: IC50 (proliferation); cited from earlier work
# Vero cells = tested on: Vero cells; parameters: method as in PMID 31749783; details: cited from earlier work
# [11] = tested on: Staphylococcus aureus (ATCC 29213) membrane; test: Membrane disruption assay, fluorescence microscopy with SYTO9 and propidium iodide; details: S. aureus; LCC at MIC 12.5 µg/mL, 15 min; nisin positive control
# Experimental: Two fluorescent dyes propidium iodide (PI) and SYTO9 were added, which stain cells with disrupted membranes (in pink) and whole membranes (in blue).
# The assay was performed using Staphylococcus aureus (ATCC 29213), an MSSA strain. Bacterial cells were cultivated in solid TSA broth (tryptone soya) at 36 °C and stirred at 200 rpm. […] Cells were stained with the Live/Dead BacLight Kit (Thermo-Scientific® L7012, Carlsbad, CA, USA), which is composed of two nucleic acid dyes: SYTO9, which stains all cells, and propidium iodide, which penetrates cells with damaged membranes [60]. The stained cells were immobilized on agarose-covered slides as described by Martins [61]. Untreated S. aureus cells with intact membranes were used as negative controls, and S. aureus cells exposed to nisin (Sigma-Aldrich® N5764, St. Louis, MO, USA) were used as positive controls for membrane damage [62]. Microscopic analyses were carried out using an Olympus BX-61 microscope, equipped with a monochromatic OrcaFlash-2.8 camera (Hamamatsu, Japan), and the software CellSens Dimension Version 11 (Olympus).
# [12] = ATCC25922, mean of triplicates, read-out: MIC
compound,measurement,setting,value
"COc1c(/C=C/C(=O)c2ccc(O)cc2)ccc(O)c1CC=C(C)C [LCC, licochalcone C]",MIC,MSSA (ATCC 6538),12.5 µg/mL
same,MIC,MSSA (ATCC 6538); read-out: MIC,12.5 µg/mL
same,MIC,MRSA (ATCC BAA44),12.5 µg/mL
same,MIC,MRSA (ATCC BAA44); read-out: MIC,12.5 µg/mL
same,MIC,[1],6.2 µg/mL
same,MIC,E. faecalis (ATCC 1299),50 µg/mL
same,MIC,[2],50 µg/mL
same,MIC,[3],6.2 µg/mL
same,MIC,S. sobrinus (ATCC 33478),12.5 µg/mL
same,MIC,S. mutans (ATCC 25175),12.5 µg/mL
same,MIC,[4],31.2 µg/mL
same,MIC,M. avium (ATCC 25291),62.5 µg/mL
same,MIC,M. kansasii (ATCC 12478),125 µg/mL
same,MIC,"H. pylori (ATCC 43526); ATCC43526, read-out: MIC",25 µg/mL
same,MIC,H. pylori (ATCC 43526),25 µg/mL
same,MIC,"[5]; ATCC27853, read-out: MIC",> 400 µg/mL
same,MIC,[5],>400 µg/mL
same,MIC,"[6]; ATCC23883, read-out: MIC",> 400 µg/mL
same,MIC,[6],>400 µg/mL
same,MIC,[7]; [12],> 400 µg/mL
same,MIC,[7]; mean of triplicates,>400 µg/mL
same,"MIC, range over Gram-positive bacteria",Gram-positive bacteria,6.2 to 50.0 µg/mL
same,MIC,"MRSA planktonic cells; checkerboard, drug alone",12.5 µg/mL
same,MIC Combined,MRSA planktonic cells; checkerboard,6.25 µg/mL
same,FICLCC (fractional inhibitory concentration for LCC),MRSA planktonic cells; combination LCC + VAN,0.5
same,MIC,MSSA planktonic cells,12.5 µg/mL
same,MIC Combined,MSSA planktonic cells,3.12 µg/mL
same,FICLCC (fractional inhibitory concentration for LCC),MSSA planktonic cells; combination LCC + TC,0.25
same,inhibition of biofilm formation,MSSA biofilm,75%
same,MBIC50 (minimum biofilm inhibitory concentration),MSSA biofilm,6.25 µg/mL
same,MBIC50 (minimum biofilm inhibitory concentration),MRSA biofilm,6.25 µg/mL
same,inhibition of biofilm formation,"MRSA biofilm; MRSA, at MBIC50 (6.25 μg/mL)",87%
same,lethality to larvae,[8]; 100 µg/mL after 80 h treatment,not lethal
same,larvae survival,"[8]; LCC at 12.5, 25, 50, and 100 µg/mL, over a period of 72 h",100%
same,IC50,NADH-oxidase,3000 nM
same,IC50,[9],29.6 µM
same,IC50,NADH-CoQ reductase,> 100 µM
same,IC50,NADH-FMN oxidoreductase,> 100 µM
same,inhibition of respiratory chain,[10],did not inhibit
same,proliferation inhibition,T24 (bladder),68%
same,proliferation inhibition,MCF7 (breast),47%
same,proliferation inhibition,A549 (lung),40%
same,IC50,HCT116 (colorectal),16.6 µM
same,IC50,HepG2 (liver),50.8 µM
same,IC50,HN22 (oral),23.8 µM
same,IC50,HSC4 (oral),27.1 µM
same,IC50,KYSE 30 (esophageal),28 µM
same,IC50,KYSE 70 (esophageal),36 µM
same,IC50,KYSE 410 (esophageal),19 µM
same,IC50,KYSE 450 (esophageal),28 µM
same,IC50,KYSE 510 (esophageal),26 µM
same,IC50,Vero cells,27.7 µg/mL
same,percentage of cells with permeabilized membrane (stained with both fluorophores),[11],75%
"CN(C)[C@@H]1C(O)=C(C(N)=O)C(=O)[C@@]2(O)C(O)=C3C(=O)c4c(O)cccc4[C@@](C)(O)[C@H]3C[C@@H]12 [Tetracycline, tetracycline, reference compound]",MIC,MSSA (ATCC 6538); read-out: MIC,0.09 µg/mL
same,MIC,[1],> 5.9 µg/mL
same,MIC,E. faecalis (ATCC 1299),3.3 µg/mL
same,MIC,[2],0.4 µg/mL
same,MIC,"H. pylori (ATCC 43526); ATCC43526, read-out: MIC",1.47 µg/mL
same,MIC,"[5]; ATCC27853, read-out: MIC",5.9 µg/mL
same,MIC,"[6]; ATCC23883, read-out: MIC",1.47 µg/mL
same,MIC,[7]; [12],0.73 µg/mL
same,MIC,MSSA planktonic cells,0.09 µg/mL
same,MIC Combined,MSSA planktonic cells,0.18 µg/mL
same,FICD (fractional inhibitory concentration for the associated drug),MSSA planktonic cells; combination LCC + TC,2.0
same,MBIC50 (minimum biofilm inhibitory concentration),MSSA biofilm,0.046 µg/mL
"CN[C@H](CC(C)C)C(=O)N[C@H]1C(=O)N[C@@H](CC(N)=O)C(=O)N[C@H]2C(=O)N[C@H]3C(=O)N[C@H](C(=O)N[C@H](C(=O)O)c4cc(O)cc(O)c4-c4cc3ccc4O)[C@H](O)c3ccc(c(Cl)c3)Oc3cc2cc(c3O[C@@H]2O[C@H](CO)[C@@H](O)[C@H](O)[C@H]2O[C@H]2C[C@](C)(N)[C@H](O)[C@H](C)O2)Oc2ccc(cc2Cl)[C@H]1O [Vancomycin, vancomycin, reference compound]",MIC,MRSA (ATCC BAA44); read-out: MIC,0.73 µg/mL
same,MIC,MRSA planktonic cells,0.73 µg/mL
same,MIC Combined,MRSA planktonic cells; checkerboard,0.36 µg/mL
same,FICD (fractional inhibitory concentration for the associated drug),MRSA planktonic cells; combination LCC + VAN,0.5
same,MBIC50 (minimum biofilm inhibitory concentration),MRSA biofilm,0.737 µg/mL and 0.7375 µg/mL
"nisin (I[Dhb]AI[Dha]LC[Abu]PGCK[Abu]GALMGCNMK[Abu]A[Abu]CHCSIHV[Dha]K; thioether 8-11, 13-19, 23-26, 25-28, 3-7; UniProt P13068 24-57, looked up) [reference compound]",percentage of cells with permeabilized membrane (stained with both fluorophores),[11],95%
